# Columns and labels:
# [1] = Solubility of the active in water and organic solvents (statement); type: physicochemical
# Source text: However, such organic solvents are unsuitable for use in topical formulations for treatment of skin disease.
# [2] = Initial formulation attempts with common solvents and excipients: crystal formation upon storage; type: physicochemical; settings: common pharmaceutically acceptable solvents and excipients
# Source text: Accordingly, further development was needed to arrive at a stable topical formulation where crystal formation of 6-ethoxy-7-methoxy-2-(2-methylsulfanylphenyl)-3,1-benzoxazin-4-one can be avoided.
compound,measurement,setting,value
"CCOc1cc2c(=O)oc(-c3ccccc3SC)nc2cc1OC [6-Ethoxy-7-methoxy-2-(2-methylsulfanylphenyl)-3,1-benzoxazin-4-one]",Solubility in organic solvents,[1]; various organic solvents,can be dissolved in various organic solvents
same,Solubility in water,[1]; water,low solubility in water
same,Crystal formation upon storage of the formulation,[2],form needle shaped crystals upon storage of the formulation

# From patent US20240180915A1, “OIL-IN-WATER EMULSION OF 6-ETHOXY-7-METHOXY-2-(2-[…])-3,L-BENZOXAZIN-4-ONE” (SIXERA PHARMA AB, priority 2021, published 2024)
